Results: publication PMC9389804 (Journal of Hematology & Oncology, 2022)
“And” between values parts separate entries of the source, which are not always exact repeats. Identical values can stand only once.

Experiment: safety assessments (adverse events, NCI CTCAE)
Conditions: for Treatment-related cardiovascular events: G 3/4
[1] = AE resulting in dose interruption, Total n=165
[2] = AE resulting in dose reduction, Accelerated phase n=38
[3] = AE resulting in dose reduction, Chronic phase n=127
[4] = AE resulting in dose reduction, Total n=165
[5] = AE resulting in treatment discontinuation, Accelerated phase n=38
[6] = AE resulting in treatment discontinuation, Chronic phase n=127
[7] = AE resulting in treatment discontinuation, Total n=165
[8] = CVE possibly related to olverembatinib, all 165 patients
[9] = CVEs possibly related to olverembatinib

Procedure: Adverse events were assessed continuously and graded according to NCI CTCAE v5.0.18. Complete blood count with differential, serum chemistries, and physical examinations were performed before the study; weekly during Cycles 1 and 2; on alternate weeks in Cycles 3 and 4; and monthly thereafter.

Cc1ccc(C(=O)Nc2ccc(CN3CCN(C)CC3)c(C(F)(F)F)c2)cc1C#Cc1cnc2[nH]ncc2c1 [olverembatinib]
7 (4.2) n (%): Hematologic [7]
9 (7.1) n (%): Adverse events resulting in treatment discontinuation (Chronic phase n=127)
30 (18.2) n (%): Hematologic adverse events [4]
48 (29.1) n (%): Nonhematologic [1]
8.5%: Pericardial effusion [8]
5 (3.0) n (%): Neutropenia [1]
3.0%: Atrial fibrillation [8] | Supraventricular extrasystoles [8]
58 (45.7%) n (%) and 58 (45.7) n (%): Adverse events resulting in dose interruption (Chronic phase n=127)
11.5%: G3/4 cardiovascular events [9]
10 (26.3) n (%): Hematologic adverse events [2]
59 (35.8) n (%): Thrombocytopenia [1]
1 (2.6) n (%): Anemia [2] | Arthralgia [2] | Atrial fibrillation [2] | Hyperbilirubinaemia [2] | Hyperglycaemia [2] | Hypokalemia [2] | Neutropenia [2] | Seronegative arthritis [2] | Nonhaematologic [5] | Pericardial effusion [5]
6 (3.6) n (%): Nonhaematologic [7] | Thrombocytopenia [7]
5 (3.9) n (%): Nonhaematologic [6]
4 (3.1) n (%): Hematologic [6]
19 (15) n (%): Thrombocytopenia [3]
5 (13.2) n (%): Nonhaematologic [2]
3 (7.9) n (%): Hematologic [5] | Thrombocytopenia [5]
16 (12.6) n (%): Nonhaematologic [3]
2 (5.3) n (%): Leukopenia [2]
3 (2.4) n (%): Thrombocytopenia [6]
15 (11.8) n (%): Treatment-related cardiovascular events (Chronic phase n=127)
26 (15.8) n (%): Thrombocytopenia [4]
0 n (%): Acute coronary syndrome [2] | Arteriosclerosis coronary artery [2] | Asthenia [2] | Cerebral infarction [2] | Chest discomfort [2] | Dyspnea [2] | Electrocardiogram QT prolonged [2] | Glaucoma [2] | Hypertriglyceridaemia [2] | Increased creatine phosphokinase [2] | Proteinuria [2] | Retinal-vein occlusion [2] | Subileus [2] | Arthralgia [3] | Atrial fibrillation [3] | Hypokalemia [3] | Leukopenia [3] | Seronegative arthritis [3] | Acute myocardial infarction [5] | Breast cancer [5] | Febrile neutropenia [5] | Lacunar infarction [5] | Proteinuria [5] | Retinal-vein occlusion [5] | Pericardial effusion [6]
14 (36.8%) n (%) and 14 (36.8) n (%): Adverse events resulting in dose reduction (Accelerated phase n=38)
20 (15.7) n (%): Hematologic adverse events [3]
4 (10.5) n (%): Adverse events resulting in treatment discontinuation (Accelerated phase n=38) | Treatment-related cardiovascular events (Accelerated phase n=38)
< 1%: angina pectoris, arrhythmia, atrial tachycardia, cardiomegaly, cerebral ischemia, and/or cerebral infarction [8]
1 (0.6) n (%): Musculoskeletal pain [1] | Myocardial strain [1] | Pain [1] | Pain in extremity [1] | Pericardial effusion [1] | Peripheral swelling [1] | Proteinuria [1] | Pulmonary arterial hypertension [1] | Pulmonary tuberculosis [1] | Rash [1] | Refraction disorder [1] | Sinus bradycardia [1] | Skin mass [1] | Superior mesenteric artery syndrome [1] | Supraventricular extrasystoles [1] | Swelling [1] | Urinary sediment present [1] | Acute coronary syndrome [4] | Arteriosclerosis coronary artery [4] | Arthralgia [4] | Asthenia [4] | Atrial fibrillation [4] | Cerebral infarction [4] | Chest discomfort [4] | Dyspnea [4] | Electrocardiogram QT prolonged [4] | Glaucoma [4] | Hypertriglyceridaemia [4] | Hypokalemia [4] | Proteinuria [4] | Seronegative arthritis [4] | Subileus [4] | Acute myocardial infarction [7] | Breast cancer [7] | Febrile neutropenia [7] | Lacunar infarction [7] | Pericardial effusion [7] | Proteinuria [7] | Retinal-vein occlusion [7]
11 months: median time on treatment to cardiovascular events (CVEs) [9]
28 (73.7%) n (%) and 28 (73.7) n (%): Adverse events resulting in dose interruption (Accelerated phase n=38)
2 (1.6) n (%): Anemia [3] | Increased creatine phosphokinase [3] | Neutropenia [3] | Retinal-vein occlusion [3]
21 (12.7) n (%): Nonhaematologic [4]
7 (18.4) n (%): Thrombocytopenia [2]
2 (1.2) n (%): Pneumonia [1] | Sinus tachycardia [1] | Upper-respiratory-tract infection [1] | Hyperbilirubinaemia [4] | Hyperglycaemia [4] | Increased creatine phosphokinase [4] | Leukopenia [4] | Retinal-vein occlusion [4]
1.2%: Palpitations [8]
4.2%: Ventricular extrasystoles [8]
19 (11.5) n (%): Treatment-related cardiovascular events (Total n=165)
3 (1.8) n (%): Pyrexia [1] | Anemia [4] | Neutropenia [4]
1 (0.8) n (%): Acute coronary syndrome [3] | Arteriosclerosis coronary artery [3] | Asthenia [3] | Cerebral infarction [3] | Chest discomfort [3] | Dyspnea [3] | Electrocardiogram QT prolonged [3] | Glaucoma [3] | Hyperbilirubinaemia [3] | Hyperglycaemia [3] | Hypertriglyceridaemia [3] | Proteinuria [3] | Subileus [3] | Acute myocardial infarction [6] | Breast cancer [6] | Febrile neutropenia [6] | Lacunar infarction [6] | Proteinuria [6] | Retinal-vein occlusion [6]
1.8%: Retinal-vein occlusion [8]
36 (28.3%) n (%) and 36 (28.3) n (%): Adverse events resulting in dose reduction (Chronic phase n=127)
